Our source for the IC50 and Ki values is US20250213705A1, “PSMA TARGETING LIGANDS AND METHODS OF USE” (Bright Peak Therapeutics AG, priority 2023, published 2025).

For this experiment, the target named is Recombinant Human PSMA/FOLH1 Protein (Homo sapiens (Human), UniProt Q04609). Put plainly: Inhibition assay (Amplex Red glutamic acid/glutamate oxidase, NAAG substrate). Format: biochemical. Particulars: Target PSMA, average of N replicates; for IC50: PSMA 5 nM, NAAG 40 μM; for Ki: calculated based on Cheng-Prusoff equation. As to the method:
Amplex™ Red Glutamic Acid/Glutamate Oxidase Assay Kit Catalog number: A12221 (Thermofisher); Recombinant Human PSMA/FOLH1 Protein, CF (rnd systems); N-Acetyl-Asp-Glu (NAAG) (Sigma Aldrich; 96 well half area plate; Enspire plate reader.
Prepare a working solution of 100 μM Amplex® Red reagent containing 0.25 U/mL HRP, 0.08 U/mL L-glutamate oxidase, 0.5 U/mL 1-glutamate-pyruvate transaminase, 200 μM L-alanine and keep protected from light. […] Final concentration is 5 nM. Transfer 10 μl/well of the inhibitor solution previously prepared in a separate 96 wells/plate.
Pipette 20 μl/well of the working solution prepared above. Incubate the reactions for 30 min at 37° C., protected from light. Because the assay is continuous (not terminated), fluorescence may be measured at multiple time points to follow the kinetics of the reactions. Measure the fluorescence in a fluorescence microplate reader using excitation in the range of 530-560 nm and emission detection at ˜590 nm. Ec50s were determined with GraphPad Prism. Ki is calculated based on Cheng-Prusoff equation.

Numbered stars: 1 amine (or outer) side, 2 acyl side, 3 side chain; on linkers, the order of the positions; unused ones are H or OH. Square brackets hold non-standard residues; d marks the D form. Side chains are listed from the residue outwards. Peptide text beside a SMILES is read from it. 2Nal = N[C@@H](Cc1ccc2ccccc2c1)C(=O)O; Trx = NC[C@H]1CC[C@H](C(=O)O)CC1; PEG3 = NCCOCCOCCOCCC(=O)O; Dap = NC[C@H](N)C(=O)O; CO = O=C([*:1])[*:2]

Recombinant Human PSMA/FOLH1 Protein, sequence (Q04609 whole entry): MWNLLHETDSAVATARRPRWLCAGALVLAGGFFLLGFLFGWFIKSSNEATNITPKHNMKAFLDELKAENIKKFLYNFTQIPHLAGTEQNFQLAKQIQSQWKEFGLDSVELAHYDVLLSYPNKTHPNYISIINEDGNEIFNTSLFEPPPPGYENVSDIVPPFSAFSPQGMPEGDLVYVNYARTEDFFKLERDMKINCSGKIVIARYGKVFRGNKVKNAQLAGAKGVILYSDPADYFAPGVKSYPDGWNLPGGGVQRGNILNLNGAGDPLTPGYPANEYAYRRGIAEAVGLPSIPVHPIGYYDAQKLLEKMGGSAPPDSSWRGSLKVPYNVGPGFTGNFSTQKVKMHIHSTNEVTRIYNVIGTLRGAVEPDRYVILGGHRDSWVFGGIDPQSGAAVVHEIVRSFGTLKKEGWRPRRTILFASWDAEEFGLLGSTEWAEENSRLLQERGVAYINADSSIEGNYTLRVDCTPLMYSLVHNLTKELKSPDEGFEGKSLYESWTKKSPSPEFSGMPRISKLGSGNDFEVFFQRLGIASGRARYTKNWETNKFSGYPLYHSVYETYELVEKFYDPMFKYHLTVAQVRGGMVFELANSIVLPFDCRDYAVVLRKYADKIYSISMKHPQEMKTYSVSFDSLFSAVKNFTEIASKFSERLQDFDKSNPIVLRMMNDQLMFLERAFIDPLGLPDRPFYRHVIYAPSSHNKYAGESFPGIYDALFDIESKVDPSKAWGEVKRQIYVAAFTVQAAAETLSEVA

For `CC(=O)NCCOCCOCCOCCC(=O)NC[C@H]1CC[C@H](C(=O)N[C@@H](Cc2ccc3ccccc3c2)C(=O)NCCCC[C@H](NC(=O)N[C@@H](Cc2cnc[nH]2)C(=O)O)C(=O)O)CC1` (stereo in doubt) [Compound 29], the IC50 was found to be 576 µM and the Ki was 4120 nM.
The like results for `CC(=O)NCCOCCOCCOCCC(=O)NC[C@H]1CC[C@H](C(=O)N[C@@H](CC(C)C)C(=O)NCCCC[C@H](NC(=O)N[C@@H](CCC(=O)O)C(=O)O)C(=O)O)CC1` [Compound 1] were, in that order, 2.39 µM and 17.1 nM.
For `CC(=O)NCCOCCOCCOCCC(=O)NC[C@H]1CC[C@H](C(=O)N[C@@H](Cc2ccc(O)cc2)C(=O)NCCCC[C@H](NC(=O)N[C@@H](CCC(=O)O)C(=O)O)C(=O)O)CC1` [Compound 3], the IC50 came to 0.421 µM and the Ki was 3.01 nM.
The like results for `CC(=O)NCCOCCOCCOCCC(=O)NC[C@H]1CC[C@H](C(=O)N[C@@H](C)C(=O)NCCCC[C@H](NC(=O)N[C@@H](CCC(=O)O)C(=O)O)C(=O)O)CC1` [Compound 4] were, in that order, 0.537 µM and 3.84 nM.
The like results for `CC(=O)NCCOCCOCCOCCC(=O)NC[C@H]1CC[C@H](C(=O)N[C@@H](CCCCN)C(=O)NCCCC[C@H](NC(=O)N[C@@H](CCC(=O)O)C(=O)O)C(=O)O)CC1` [Compound 6] were, in that order, 58.2 µM and 416 nM.
For `CC(=O)NCCOCCOCCOCCC(=O)NC[C@H]1CC[C@H](C(=O)N[C@@H](Cc2c[nH]cn2)C(=O)NCCCC[C@H](NC(=O)N[C@@H](CCC(=O)O)C(=O)O)C(=O)O)CC1` [Compound 9], the IC50 was 1.08 µM and the Ki is 7.74 nM.
Turning to `CC(=O)NCCOCCOCCOCCC(=O)NC[C@H]1CC[C@H](C(=O)N[C@@H](Cc2cn(C)cn2)C(=O)NCCCC[C@H](NC(=O)N[C@@H](CCC(=O)O)C(=O)O)C(=O)O)CC1` [Compound 11], the IC50 was found to be 3.24 µM and the Ki is 23.2 nM.
`CC(=O)NCCOCCOCCOCCC(=O)NC[C@H]1CC[C@H](C(=O)N[C@@H](Cc2ccc(F)cc2)C(=O)NCCCC[C@H](NC(=O)N[C@@H](CCC(=O)O)C(=O)O)C(=O)O)CC1` [Compound 13]: the IC50 was 0.951 µM and the Ki was 6.8 nM.
The like results for `CC(=O)NCCOCCOCCOCCC(=O)NC[C@H]1CC[C@H](C(=O)N[C@@H](Cc2ccc(N=[N+]=[N-])cc2)C(=O)NCCCC[C@H](NC(=O)N[C@@H](CCC(=O)O)C(=O)O)C(=O)O)CC1` [Compound 15] were, in that order, 0.935 µM and 6.68 nM.
On the same counts, the results for `CC(=O)NCCOCCOCCOCCC(=O)NC[C@H]1CC[C@H](C(=O)N[C@H](Cc2ccccc2)C(=O)NCCCC[C@H](NC(=O)N[C@@H](CCC(=O)O)C(=O)O)C(=O)O)CC1` [Compound 18] are 0.54 µM and 3.86 nM.
As for `CC(=O)NCCOCCOCCOCCC(=O)NC[C@H]1CC[C@H](C(=O)N[C@@H](CC2CCCCC2)C(=O)NCCCC[C@H](NC(=O)N[C@@H](CCC(=O)O)C(=O)O)C(=O)O)CC1` [Compound 19], the IC50 worked out at 2.16 µM and the Ki is 15.4 nM.
`CC(=O)NCCOCCOCCOCCC(=O)NC[C@H]1CC[C@H](C(=O)N[C@@H](CCCC(=O)O)C(=O)NCCCC[C@H](NC(=O)N[C@@H](CCC(=O)O)C(=O)O)C(=O)O)CC1` [Compound 20]: the IC50 was found to be 1.49 µM and the Ki is 10.7 nM.
For `CC(=O)NCCOCCOCCOCCC(=O)NC[C@H]1CC[C@H](C(=O)N[C@@H](Cc2c[nH]c3ncccc23)C(=O)NCCCC[C@H](NC(=O)N[C@@H](CCC(=O)O)C(=O)O)C(=O)O)CC1` [Compound 22], the IC50 is 0.488 µM and the Ki was 3.49 nM.
The like results for `CC(=O)NCCOCCOCCOCCC(=O)NC[C@H]1CC[C@H](C(=O)N[C@@H](Cc2ccc3ccccc3c2)C(=O)NCCCC[C@H](NC(=O)N[C@@H](Cc2ccc(O)cc2)C(=O)O)C(=O)O)CC1` [Compound 25] were, in that order, 44.6 µM and 319 nM.
For `CC(=O)NCCOCCOCCOCCC(=O)NC[C@H]1CC[C@H](C(=O)N[C@@H](Cc2ccc3ccccc3c2)C(=O)NCCCC[C@H](NC(=O)N[C@@H](CC(C)C)C(=O)O)C(=O)O)CC1` [Compound 26], the IC50 worked out at 1550 µM and the Ki was 11000 nM.
As for `CSCC[C@H](NC(=O)N[C@@H](CCCCNC(=O)[C@H](Cc1ccc2ccccc2c1)NC(=O)[C@H]1CC[C@H](CNC(=O)CCOCCOCCOCCNC(C)=O)CC1)C(=O)O)C(=O)O` [Compound 27], the half-maximal inhibitory concentration (IC50) was 191 µM and the Ki is 1370 nM.
On the same counts, the results for `CC(=O)NCCOCCOCCOCCC(=O)NC[C@H]1CC[C@H](C(=O)N[C@@H](Cc2ccc3ccccc3c2)C(=O)NCCCC[C@H](NC(=O)N[C@@H](Cc2cccc(C(=O)O)c2)C(=O)O)C(=O)O)CC1` [Compound 30] are 602 µM and 4300 nM.
On the same counts, the results for `CC(=O)NCCOCCOCCOCCC(=O)NC[C@H]1CC[C@H](C(=O)N[C@@H](Cc2ccc3ccccc3c2)C(=O)NCCCC[C@H](NC(=O)N[C@@H](Cc2ccc(C(=O)O)cc2)C(=O)O)C(=O)O)CC1` [Compound 31] are 260 µM and 1860 nM.
Consider `CC(=O)NCCOCCOCCOCCC(=O)NC[C@H]1CC[C@H](C(=O)N[C@@H](Cc2ccc3ccccc3c2)C(=O)NCC(=O)N[C@@H](CNC(=O)N[C@@H](CCC(=O)O)C(=O)O)C(=O)O)CC1` [Compound 32] (Ac-[PEG3][Trx][2Nal]G[Dap]([CO-Glu])-OH), for which the 50% inhibitory concentration (IC50) stood at 434 µM and the inhibitory constant (Ki) was 3100 nM.
The like results for `CC(=O)NCCOCCOCCOCCC(=O)NC[C@H]1CC[C@H](C(=O)N[C@@H](Cc2ccc3ccccc3c2)C(=O)NCCCC(=O)N[C@@H](CNC(=O)N[C@@H](CCC(=O)O)C(=O)O)C(=O)O)CC1` [Compound 33] were, in that order, 583 µM and 4170 nM.
The like results for `CC(=O)NCCOCCOCCOCCC(=O)NC[C@H]1CC[C@H](C(=O)N[C@H](Cc2c[nH]cn2)C(=O)NCCCC[C@H](NC(=O)N[C@@H](CCC(=O)O)C(=O)O)C(=O)O)CC1` [Compound 42] were, in that order, 2.24 µM and 16 nM.
Turning to `CC(=O)NCCOCCOCCOCCC(=O)NC[C@H]1CC[C@H](C(=O)N[C@H](Cc2ccc(O)cc2)C(=O)NCCCC[C@H](NC(=O)N[C@@H](CCC(=O)O)C(=O)O)C(=O)O)CC1` [Compound 43], the IC50 worked out at 0.679 µM and the Ki is 4.86 nM.
The like results for `CC(=O)NCCOCCOCCOCCC(=O)NC[C@H]1CC[C@H](C(=O)N[C@@H](Cc2ccncc2)C(=O)NCCCC[C@H](NC(=O)N[C@@H](CCC(=O)O)C(=O)O)C(=O)O)CC1` [Compound 44] were, in that order, 0.177 µM and 1.27 nM.
On the same counts, the results for `CC(=O)NCCOCCOCCOCCC(=O)NC[C@H]1CC[C@H](C(=O)N[C@@H](Cc2cscn2)C(=O)NCCCC[C@H](NC(=O)N[C@@H](CCC(=O)O)C(=O)O)C(=O)O)CC1` [Compound 45] are 0.554 µM and 3.96 nM.
Turning to `CC(=O)NCCOCCOCCOCCC(=O)NC[C@H]1CC[C@H](C(=O)N[C@H](CC(=O)NCCCC[C@H](NC(=O)N[C@@H](CCC(=O)O)C(=O)O)C(=O)O)Cc2ccccc2)CC1` [Compound 46], the IC50 amounted to 0.446 µM and the Ki was 3.19 nM.
The like results for `CC(=O)NCCOCCOCCOCCC(=O)NC[C@H]1CC[C@H](C(=O)N[C@@H](CCCOc2cc(C#N)cc(C#N)c2)C(=O)NCCCC[C@H](NC(=O)N[C@@H](CCC(=O)O)C(=O)O)C(=O)O)CC1` [Compound 47] were, in that order, 2.06 µM and 14.7 nM.
Regarding `C#CC[C@H](NC(=O)N[C@@H](CCCCNC(=O)[C@H](Cc1ccc2ccccc2c1)NC(=O)[C@H]1CC[C@H](CNC(=O)CCOCCOCCOCCNC(C)=O)CC1)C(=O)O)C(=O)O` [Compound 50], the IC50 was 17.6 µM and the Ki is 126 nM.
The like results for `CC(=O)NCCOCCOCCOCCC(=O)N[C@@H](CCCOc1cc(C#N)cc(C#N)c1)C(=O)N[C@@H](Cc1ccc2ccccc2c1)C(=O)NCCCC[C@H](NC(=O)N[C@@H](CCC(=O)O)C(=O)O)C(=O)O` [Compound 51] were, in that order, 1.71 µM and 12.2 nM.
As for `CC(=O)NCCOCCOCCOCCC(=O)N[C@@H](CCCOc1cc(C#N)cc(C#N)c1)C(=O)NCCC(=O)N[C@@H](Cc1ccc2ccccc2c1)C(=O)NCCCC[C@H](NC(=O)N[C@@H](CCC(=O)O)C(=O)O)C(=O)O` [Compound 53], the IC50 was found to be 0.0112 µM and the Ki is 0.0801 nM.
Turning to `CC(=O)NCCOCCOCCOCCC(=O)N[C@@H](Cc1ccncc1)C(=O)NCC(=O)N[C@@H](Cc1ccc2ccccc2c1)C(=O)NCCCC[C@H](NC(=O)N[C@@H](CCC(=O)O)C(=O)O)C(=O)O` [Compound 85], the half-inhibitory concentration (IC50) was 0.0106 µM and the Ki was 0.0759 nM.
